The source of these data is article PMC11997985, “Synthesis and In Vitro Profiling of Psilocin Derivatives: Improved Stability and Synthetic Properties” (Journal of Medicinal Chemistry, 2025).

A short description of series [1]: Metabolic stability in human microsomes. It is filed as in vitro ADME. The conditions noted are these: for Metabolic stability in human microsomes: 37 °C, 0.5 mg/mL protein, 1 μM compound, 1 mM NADPH; for Comment on microsome assay: Table S3.
The nature of series [2]: Co-factor experiment: microsome suspension with and without NADPH. To be noted: for Co-factor experiment: degradation with and without addition of NADPH compared. The format is in vitro ADME, human. On the procedure:
Therefore, additional experiments comparing stability with and without the addition of NADPH cofactor and a very short incubation period were performed (Tables S4 and S5). […] Due to the rapid observed degradation in microsomes, we decided to investigate the stability of five compounds in human plasma, aiming for a broad range of stabilities (Table 2, Table S6). It should be noted that esterase-labile compounds are notoriously difficult to study in microsomal stability studies.[36]
Table S3 Evaluation of metabolic stability in human microsomes
No. Metabolic stability Comment
4k <10/<10 Low retention in chromatography
8 <10/<10 Low retention in chromatography.
Table S4 Results from the modified microsome assay where degradation with and without the addition of NADPH was compared […]
4d Very low peak area for the first time point,
4e Very low peak area for the first time point,
4f Very low peak area for the first time point,
5 Very low peak area for the first time point,
8 No degradation without co -factor […]
metabolism by the microsomes (consisting mainly of cytochrome P450 enzymes) or if it was due to other factors, the compounds (with the exception of 4k) were incubated in the microsome suspension both with and without the addition of NADPH. Samples […]
(§1) were taken at three timepoints, and the degradation was compared to determine if it was dependent on NADPH. Compound 4k […]
(§2) without the addition of NADPH. […]
(§3) microsomes that need to be activated by a co -factor.
(§4) Table S5 Percent of peak area found in microsome suspension 15 seconds after the addition of NADPH in comparison with the same amount dissolved in H2O/EtOH
(§5) No. Area at 0.25 min. in Area in solution % found in microsomes/NADPH (125 nM) microsome
(§6) Comparison with compounds in solution. A comparison was made between the peak area of the compounds in solution with that obtained in the microsome suspension directly after the addition of NADPH (about 0.25 minutes) (Table S5). Before the addition of NADPH, the compounds are equilibrated in the microsome suspension for approximately five minutes. All compounds were prepared in solution by diluting a portion of the DMSO solutions with H2O/EtOH (75:25) to 125 nM (the final concentration of compounds for analysis in the microsome assay).
(§7) For the compounds where no results from the microsome assay could be reported due to low peak area (4d, 4e, 4f & 5), less than one percent of the expected peak area as compared with the area in solution was detected. […]
(§8) degrade rapidly before the addition of the co-factor after five minutes in incubation. For compounds 4g, 4h, 4i & 4j, which were […]
(§9) higher relative peak areas were found. […]
(§10) without NADPH was only found at 15% of the area seen in solution in the microsome suspension.

A short description of series [3]: Chemical stability in 1.0 M NaHCO3 and 1.0 M HCl.
Series [4] is described as follows: Stability in simulated stomach acid (0.10 M HCl). To be noted: 0.10 M HCl (simulated stomach acid).
Series [5] in a line: Photolytic degradation of psilocin salts. The conditions noted are these: for % psilocin remaining: after 14 days.
The nature of series [6]: Thermal degradation of psilocin salts at 60 °C. The conditions noted are these: for % psilocin remaining: after 6 days (143 h).
The nature of series [7]: Forced degradation of psilocin salts, acid (1.0 M HCl). The conditions noted are these: for half-life at 2 mg/mL freebase psilocin: 1.0 M HCl (acid forced degradation); for % psilocin remaining / color: 1.0 M HCl; for % psilocin remaining: after 24 h compared with first measuring point at 1 h, LCMS; for color: visual inspection after 24 h, RT.
Series [8] in a line: Forced degradation of psilocin salts, base (0.10 M NaOH). To be noted: for half-life at 24 h, 2 mg/mL freebase psilocin: 0.10 M NaOH (base forced degradation); for % psilocin remaining: 0.10 M NaOH, after 24 h.
Series [9] is described as follows: Forced degradation of psilocin salts, oxidative (0.30% H2O2). To be noted: for % psilocin remaining: 0.30% H2O2, after 24 h.
Series [10] can be described thus: General observations of psilocin salts in solid form in −18 °C freezer. The conditions noted are these: for stability (solid form): over 3 weeks in −18 °C freezer, visual inspection and LCMS; for hygroscopic: visual inspection.
For the next series, the system named is porcine liver esterase. Nature of the series: Stability in FaSSIF supplemented with esterase. To be noted: for % prodrug remaining, measured after 1 min: after 1 min at 20 IU/mL; for predicted half-life: at 270 IU/mL; for predicted abs.: calculated remaining prodrug available for GI absorption, predicted level after 5 min at 270 IU/mL (% remaining prodrug); for half-life at 0.292 mM: pig, FaSSIF supplemented with porcine liver esterase (20 IU/mL).

The nature of series [11]: Peak area in microsome suspension compared with compounds in solution. The format is in vitro ADME, human. To be noted: peak area 15 seconds after addition of NADPH versus same amount (125 nM) in H2O/EtOH. The procedure: as §1, §2, §3, §4, §5, §6, §7, §8, §9, §10
Where [12] appears, read: 0.30% H2O2 (oxidative forced degradation), half-life, 0.30% H2O2.
Where [13] appears, read: 0.30% H2O2 (oxidative forced degradation), half-life, 0.30% H2O2, RT.

“And” between values parts separate entries of the source, which are not always exact repeats. Equal values may be shown once. “Also recorded” adds a separate entry of the source. Marks after values point to notes of the source that are not given here. Bounds are passed on as bounds.

For the compound `CN(C)CCc1c[nH]c2cccc(OB(O)O)c12.O=C(O)/C=C/C(=O)O` [Compound 5], in series [1], the “Metabolic stability in human microsomes” value is >200^a μL/min/mg protein and >200 μL/min/mg protein. In addition, the “Comment on microsome assay” value in [1] is listed as “Rapid degradation”. Moreover, the Co-factor experiment result in series [2] is recorded as “Very low peak area for the first time point, instability suspected”. The values for the half-life at 5 mM in [3] (1.0 M HCl), in series [3] (1.0 M NaHCO3) and in series [4] were under 5 min, under 5 min and under 0.0833 h, respectively.

In the case of `CN(C)CCc1c[nH]c2cccc(O)c12.O=C(O)C(F)(F)F` [Compound 9f], the half-life at 336 h, 2 mg/mL freebase psilocin in series [5] turned out to be 167 h. The “% psilocin remaining” value in [5] (12900 lx) was 22%; in series [6] it was 0%; in series [7], 99%; in series [8], 0%; in series [9], 78%. Moreover, the half-life at 2 mg/mL freebase psilocin is under 48 h in [6], over 167 h in [7], over 24 h in [9] (setting [12]) and 33.3 h in series [9] (setting [13]). Moreover, the color result in [7] was “clear”. For the same compound, the half-life at 24 h, 2 mg/mL freebase psilocin in series [8] is 15 h. Moreover, the “stability (solid form)” value in series [10] was “degrades within 3 days”. Moreover, the hygroscopic entry in series [10] was “highly hygroscopic and yes”.

As to `CN(C)CCc1c[nH]c2cccc(O)c12.O=C(O)c1ccccc1` [Compound 9c], the half-life at 336 h, 2 mg/mL freebase psilocin in series [5] worked out at 150 h. In addition, the “time to complete breakdown” value in series [5] (12900 lx, RT) is reported as at most 1 week. Further, the “% psilocin remaining” value in series [5] (12900 lx) turned out to be 0%. Also, in [6], the “% psilocin remaining” value is reported as 0%; the half-life at 2 mg/mL freebase psilocin is under 48 h; the half-life at 144 h, 2 mg/mL freebase psilocin came out at 33.3 h. Also, in [7], the half-life at 2 mg/mL freebase psilocin is over 167 h, the “% psilocin remaining” value was found to be 100% and the color entry is reported as “clear”. In series [8], the half-life at 24 h, 2 mg/mL freebase psilocin came to 8.33 h and the “% psilocin remaining” value came to 0%. Further, the half-life at 2 mg/mL freebase psilocin in [9] (setting [13]) was over 167 h. The “% psilocin remaining” value in [9] was 94%. Besides, in series [10], the “stability (solid form)” value is on record as “stable enough to store as a solid in the freezer for an extended period; also recorded: no change” and the hygroscopic result is given as “no”.

On to `COC(=O)Oc1cccc2[nH]cc(CCN(C)C)c12.O=C(O)/C=C/C(=O)O` [Compound 4e], for which, in series [1], the “Metabolic stability in human microsomes” value was >200^a μL/min/mg protein and >200 μL/min/mg protein; the “Comment on microsome assay” value is on record as “Rapid degradation”. The Co-factor experiment result in series [2] was “Very low peak area for the first time point, instability suspected”. Besides, in the series on porcine liver esterase, the “% prodrug remaining, measured after 1 min” value came to 60%; the predicted half-life was 6 s; the predicted abs. is 4.1 × 10^–13; the half-life at 0.292 mM stood at 84.6 ± 19.2 s. In the series on porcine liver esterase (after 30 min with no esterase), the “% prodrug remaining, no esterase 30 min” value is 100%. The half-life at 24 h, 5 mM in series [3] (1.0 M HCl) is 150 h. The half-life at 24 h, 5 mM in series [3] (1.0 M NaHCO3) was determined as 16.7 h. Moreover, in series [4], the half-life at 5 mM was over 167 h.

In the case of `CN(C)CCc1c[nH]c2cccc(O)c12.Cl` [Compound 9a], the half-life at 336 h, 2 mg/mL freebase psilocin in [5] is 333 h. Moreover, the “% psilocin remaining” value in [5] (12900 lx) is 51%. In [6], the “% psilocin remaining” value is reported as 0%; the half-life at 2 mg/mL freebase psilocin was under 48 h; the half-life at 144 h, 2 mg/mL freebase psilocin turned out to be 50 h. Besides, in series [7], the half-life at 2 mg/mL freebase psilocin was over 167 h, the “% psilocin remaining” value is 100% and the color result is listed as “clear”. For the same compound, in series [8], the half-life at 24 h, 2 mg/mL freebase psilocin is 8.33 h and the “% psilocin remaining” value is recorded as 0%. Besides, the half-life at 2 mg/mL freebase psilocin in [9] (setting [13]) is over 167 h. In addition, in series [9], the “% psilocin remaining” value is 100%. Moreover, in [10], the “stability (solid form)” value is given as “degrading during storage after only 3 days; also recorded: not very stable”; the hygroscopic entry was “highly hygroscopic and yes”.

As to `CN(C)CCc1c[nH]c2cccc(O)c12.O=P(O)(O)O` [Compound 9e], in series [5], the half-life at 336 h, 2 mg/mL freebase psilocin turned out to be 333 h. Further, the “% psilocin remaining” value is 33% in series [5] (12900 lx); 0% in [6]; 94% in series [7]; 0% in [8]; 83% in series [9]. In addition, the half-life at 144 h, 2 mg/mL freebase psilocin in [6] worked out at 66.7 h. Moreover, the half-life at 2 mg/mL freebase psilocin in [7] is over 167 h; in [9] (setting [12]), over 24 h. Further, in series [7], the color result is “clear”. In addition, the half-life at 24 h, 2 mg/mL freebase psilocin in series [8] was found to be 5 h; in series [9] (setting [13]) it was 13.3 h. Also, the “stability (solid form)” value in [10] is “darkens after 1 week”. Further, the hygroscopic result in [10] is “no”.

On to `CCCCCCCCCCC(=O)Oc1cccc2[nH]cc(CCN(C)C)c12.O=C(O)/C=C/C(=O)O` [Compound 4j], for which, in series [1], the “Metabolic stability in human microsomes” value was >200^a μL/min/mg protein and >200 μL/min/mg protein; the “Comment on microsome assay” value was “Rapid degradation”. Besides, the Co-factor experiment entry in series [2] is “Degradation without co-factor”. Moreover, the microsomal CLint in series [2] (human, human microsome suspension, both with and without the addition of NADPH, read-out: intrinsic clearance) is over 200 µL/min/mg. Besides, the “% found in microsome suspension” value in [11] is reported as 45%. Further, the half-life at 24 h, 5 mM in series [3] (1.0 M HCl) is 21.7 h. This compound also showed a half-life at 24 h, 5 mM in [3] (1.0 M NaHCO3) of 16.7 h. Moreover, the half-life at 5 mM in series [4] was over 167 h.

Consider `CN(C)CCc1c[nH]c2cccc(OC(=O)OCc3ccccc3)c12.O=C(O)/C=C/C(=O)O.O=CO` [Compound 4f], for which, in series [1], the “Metabolic stability in human microsomes” value was >200^a μL/min/mg protein and >200 μL/min/mg protein; the “Comment on microsome assay” value is on record as “Rapid degradation”. In series [2], the Co-factor experiment entry is “Very low peak area for the first time point, instability suspected”. Also, in the series on porcine liver esterase, the “% prodrug remaining, measured after 1 min” value is given as 21%; the predicted half-life was 1.8 s; the predicted abs. is recorded as 6.6 × 10^–45; the half-life at 0.292 mM was 26.4 ± 2.4 s. The compound also registered a half-life at 24 h, 5 mM in series [3] (1.0 M HCl) of 100 h. Moreover, the half-life at 24 h, 5 mM in series [3] (1.0 M NaHCO3) was determined as 11.7 h. In addition, in series [4], the half-life at 5 mM was over 167 h.

In general, half-life refers to how long it takes for the measured level to halve.
